Source: paper PMC12794188, “Maternal–Fetal Transfer and Toxicokinetics of 2,2′,5,5′-Tetrachlorobiphenyl, [^14C]-PCB52, Following Intratracheal Administration” (Chemical Research in Toxicology, 2025)

Experiment: Toxicokinetics and tissue disposition of total [14C] radioactivity after a single intratracheal dose of [14C]-PCB52 (0.157 mg/kg) in pregnant rats at GD 11±1
Format: in vivo, Sprague–Dawley rats
Experimental: Female Sprague–Dawley rats (8 weeks old) weighing 237–269.7 g (mean = 247.5 g) (Envigo RMS, LLC, Indianapolis, IN) were used for this study. All animal experiments were performed following the protocols evaluated and approved by the University of Iowa Institutional Animal Care and Use Committee (approval number 3091097). After arrival, the animals were acclimated for 7 days. The animals were housed in a light and temperature-controlled environment with ad libitum access to food and water during quarantine and throughout the study. Timed pregnancy was achieved by harem mating. , Briefly, one male and two female rats were placed together in the evening and checked for vaginal plug the following day. If vaginal plug was present, the male was removed from the breeding cage, and the gestation day 0 (GD 0), 0-day post coitum was assigned. Pregnancies were confirmed by ultrasound scan at GD 9. The dams were exposed at GD 11 (±1 day) to capture the period of early organogenesis and hormonal function, which falls within week 3 of human embryonic development. ,− On the day of the experiment, pregnant rats were intratracheally administered an average of 40 μg (range, 35–45 μg) of [^14C]-PCB52 in 100 μL of exposure solution. Although the dose used in this study exceeded the tolerable daily intake (TDI) of PCBs for healthy individuals, which is 1.6 μg per day for an individual weighing 80 kg, the use of higher acute doses has been established in toxicological studies intended for risk assessment. The intratracheal instillation method was chosen for administering [^14C]-PCB52 to represent inhalation exposures, capture exhaled concentration, and efficiently utilize the limited availability of the cost-intensive radiolabeled PCB52. , Although inhalation exposure would better represent real-world exposures to airborne LC-PCBs, it would not allow us to accurately measure the amount of PCB52 exhaled into the air after exposure and is experimentally infeasible. […] All intratracheal instillations were done under light anesthesia, achieved using a 4% isoflurane concentration via a Fortec vaporizer (Cyprane, Keighley, UK). The animals recovered from anesthesia within 1 min. Subsequently, the animals were housed within a cylindrical glass chamber measuring 2 L in volume, equipped with glass drainage mechanisms to facilitate urine collection and a metallic screen to segregate urine from feces (as in Figure S1). Air was drawn from the chamber at 6.0 L/min through a cartridge containing the XAD-2 polymeric resin to capture any exhaled [^14C]-PCB52. For periods longer than 24 h postexposure, exposed dams were placed in a metabolic cage, which was fitted with a cartridge containing XAD-2 to capture exhaled [^14C]-PCB52 as in other end points.
Maternal blood, urine, and feces samples were collected immediately before and at 0.21, 1.67, 12, 24, 48, and 96 h after lung dosing. The exposed dams were euthanized using 4% isoflurane, followed by cervical dislocation and exsanguination via a cardiac puncture. Euthanasia was consistently performed during the light cycle. Dams’ fur was wiped and analyzed for radioactivity. Using the retro-orbital blood collection method, 0.5–1.5 mL ([…] of an exposed pregnant rat’s body weight) of blood sample was collected from each of the dams until the individual dams were necropsied for whole-body tissue harvesting. At the end of the exposure period, the chamber’s interior walls were rinsed separately with water and acetone/hexane (25 – 45 mL) and wiped to measure residues. From the collected whole blood samples, 100 μL were aliquoted into three vials each, and the remaining blood was allowed to clot at room temperature before being centrifuged to yield serum. The placentas, developing fetuses, and whole-body tissue samples were harvested immediately before exposure and at 0.21, 1.67, 12, 24, and 96 h postexposure. […]

[1] = Salivary gland, 0.21 h post-exposure
[2] = Salivary gland, 1.67 h post-exposure
[3] = Salivary gland, 12 h post-exposure
[4] = Salivary gland, 24 h post-exposure
[5] = Salivary gland, 96 h post-exposure
[6] = mammary gland/MS (maternal serum)
[7] = ratios of toxicokinetic parameters

Clc1ccc(Cl)c(-c2cc(Cl)ccc2Cl)c1 [PCB52, 2,2′,5,5′-Tetrachlorobiphenyl]
Percent tissue distribution (Ovary, 0.21 h post-exposure): 0.20%
Conc. per mg wet tissue (Ovary, 1.67 h post-exposure): 7.08 dpm/mg
Percent tissue distribution (Ovary, 1.67 h post-exposure): 0.08%
Conc. per mg wet tissue (Ovary, 12 h post-exposure): 1.61 dpm/mg
Percent tissue distribution (Ovary, 12 h post-exposure): 0.02%
Conc. per mg wet tissue (Ovary, 24 h post-exposure): 5.24 dpm/mg
Percent tissue distribution (Ovary, 24 h post-exposure): 0.05%
Percent tissue distribution (Ovary, 96 h post-exposure): 0.02%
AUC_%Extrap (Pancreas): 37.26%
Terminal elimination half-life (t1/2) (Pancreas): 67.74 h
Conc. per mg wet tissue (Pancreas, 0.21 h post-exposure): 14.81 dpm/mg
Percent tissue distribution (Pancreas, 0.21 h post-exposure): 0.91%
Conc. per mg wet tissue (Pancreas, 1.67 h post-exposure): 4.88 dpm/mg
Percent tissue distribution (Pancreas, 1.67 h post-exposure): 0.39%
Conc. per mg wet tissue (Pancreas, 12 h post-exposure): 1.83 dpm/mg
Percent tissue distribution (Pancreas, 12 h post-exposure): 0.07%
Conc. per mg wet tissue (Pancreas, 24 h post-exposure): 5.17 dpm/mg
Percent tissue distribution (Pancreas, 24 h post-exposure): 0.30%
Conc. per mg wet tissue (Pancreas, 96 h post-exposure): 38.84 dpm/mg
Percent tissue distribution (Pancreas, 96 h post-exposure): 0.14%
Tmax (Pituitary gland): 96 h
AUC_%Extrap (Rectal Amp.): 62.17%
Terminal elimination half-life (t1/2) (Rectal Amp.): 133.61 h
AUC_%Extrap (Salivary gland): 44.09%
Terminal elimination half-life (t1/2) (Salivary gland): 84.60 h
Tmax (Salivary gland): ≤ 0.21 h
Conc. per mg wet tissue [1]: 8.48 dpm/mg
Percent tissue distribution [1]: 0.39%
Conc. per mg wet tissue [2]: 2.93 dpm/mg
Percent tissue distribution [2]: 0.18%
Conc. per mg wet tissue [3]: 1.44 dpm/mg
Percent tissue distribution [3]: 0.04%
Conc. per mg wet tissue [4]: 2.06 dpm/mg
Percent tissue distribution [4]: 0.06%
Conc. per mg wet tissue [5]: 0.34 dpm/mg
Percent tissue distribution [5]: 0.04%
AUC_%Extrap (Skin): 30.85%
Terminal elimination half-life (t1/2) (Skin): 58.90 h
AUC_%Extrap (Small Intestine): 25.66%
Terminal elimination half-life (t1/2) (Small Intestine): 47.33 h
AUC_%Extrap (Spleen): 35.06%
Terminal elimination half-life (t1/2) (Spleen): 55.79 h
Conc. per mg wet tissue (Spleen, 0.21 h post-exposure): 13.12 dpm/mg
Percent tissue distribution (Spleen, 0.21 h post-exposure): 0.29%
Conc. per mg wet tissue (Spleen, 1.67 h post-exposure): 3.05 dpm/mg
Percent tissue distribution (Spleen, 1.67 h post-exposure): 0.12%
Conc. per mg wet tissue (Spleen, 12 h post-exposure): 2.62 dpm/mg
Percent tissue distribution (Spleen, 12 h post-exposure): 0.04%
Conc. per mg wet tissue (Spleen, 24 h post-exposure): 5.75 dpm/mg
Percent tissue distribution (Spleen, 24 h post-exposure): 0.07%
Conc. per mg wet tissue (Spleen, 96 h post-exposure): 0.87 dpm/mg
Percent tissue distribution (Spleen, 96 h post-exposure): 0.03%
AUC_%Extrap (Stomach): 15.03%
Terminal elimination half-life (t1/2) (Stomach): 32.02 h
Tmax (Stomach): ≤ 0.21 h
Conc. per mg wet tissue (Stomach, 0.21 h post-exposure): 36.55 dpm/mg
Percent tissue distribution (Stomach, 0.21 h post-exposure): 0.71%
Conc. per mg wet tissue (Stomach, 1.67 h post-exposure): 17.01 dpm/mg
Percent tissue distribution (Stomach, 1.67 h post-exposure): 0.23%
Conc. per mg wet tissue (Stomach, 12 h post-exposure): 4.80 dpm/mg
Percent tissue distribution (Stomach, 12 h post-exposure): 0.33%
Conc. per mg wet tissue (Stomach, 24 h post-exposure): 6.56 dpm/mg
Percent tissue distribution (Stomach, 24 h post-exposure): 0.44%
Conc. per mg wet tissue (Stomach, 96 h post-exposure): 2.28 dpm/mg
Percent tissue distribution (Stomach, 96 h post-exposure): 0.10%
AUC_%Extrap (Thymus): 25.14%
Terminal elimination half-life (t1/2) (Thymus): 53.40 h
AUC_%Extrap (Thyroid): 12.95%
Terminal elimination half-life (t1/2) (Thyroid): 37.74 h
Conc. per mg wet tissue (Tongue, 0.21 h post-exposure): 0.16 dpm/mg
Percent tissue distribution (Tongue, 0.21 h post-exposure): 0.67%
Conc. per mg wet tissue (Tongue, 1.67 h post-exposure): 4.42 dpm/mg
Percent tissue distribution (Tongue, 1.67 h post-exposure): 0.0003%
Conc. per mg wet tissue (Tongue, 12 h post-exposure): 1.08 dpm/mg
Percent tissue distribution (Tongue, 12 h post-exposure): 0.06%
Conc. per mg wet tissue (Tongue, 24 h post-exposure): 1.03 dpm/mg
Percent tissue distribution (Tongue, 24 h post-exposure): 0.05%
Conc. per mg wet tissue (Tongue, 96 h post-exposure): 0.16 dpm/mg
Percent tissue distribution (Tongue, 96 h post-exposure): 0.01%
Conc. per mg wet tissue (Trachea, 0.21 h post-exposure): 142.06 dpm/mg
Percent tissue distribution (Trachea, 0.21 h post-exposure): 0.83%
Conc. per mg wet tissue (Trachea, 1.67 h post-exposure): 40.98 dpm/mg
Percent tissue distribution (Trachea, 1.67 h post-exposure): 0.24%
Conc. per mg wet tissue (Trachea, 12 h post-exposure): 13.20 dpm/mg
Percent tissue distribution (Trachea, 12 h post-exposure): 0.08%
Conc. per mg wet tissue (Trachea, 24 h post-exposure): 6.29 dpm/mg
Percent tissue distribution (Trachea, 24 h post-exposure): 0.04%
Conc. per mg wet tissue (Trachea, 96 h post-exposure): 1.03 dpm/mg
Percent tissue distribution (Trachea, 96 h post-exposure): 0.01%
AUC_%Extrap (Uterus): 17.37%
Terminal elimination half-life (t1/2) (Uterus): 34.85 h
Conc. per mg wet tissue (Uterus, 0.21 h post-exposure): 0.37 dpm/mg
Percent tissue distribution (Uterus, 0.21 h post-exposure): 0.21%
Conc. per mg wet tissue (Uterus, 1.67 h post-exposure): 2.43 dpm/mg
Percent tissue distribution (Uterus, 1.67 h post-exposure): 0.11%
Conc. per mg wet tissue (Uterus, 12 h post-exposure): 0.93 dpm/mg
Percent tissue distribution (Uterus, 12 h post-exposure): 0.06%
Conc. per mg wet tissue (Uterus, 24 h post-exposure): 2.20 dpm/mg
Percent tissue distribution (Uterus, 24 h post-exposure): 0.16%
Conc. per mg wet tissue (Uterus, 96 h post-exposure): 0.37 dpm/mg
Percent tissue distribution (Uterus, 96 h post-exposure): 0.13%
AUC_% extrap (amniotic fluid): 7.8%
AUC_%Extrap (amniotic fluid): 8.11%
Terminal elimination half-life (t1/2) (amniotic fluid): 26.38 h
maternal serum exposure ratio (amniotic fluid): 0.05
AUC0–96h ratio (brain/MS (maternal serum)): 0.672
C max ratio (brain/MS (maternal serum)): 0.598
AUC0–96h ratio (brain/thyroid): 0.276
C max ratio (brain/thyroid): 0.298
concentration in brown adipose relative to white adipose (brown vs white adipose): five times higher
biological half-life (dams): less than 2 days
biological half-life (developing fetuses): less than 2 days
AUC0‑∞ ratio (fetus/AF (amniotic fluid)): 5.472
AUC0–96h ratio (fetus/AF (amniotic fluid)): 5.405
C max ratio (fetus/AF (amniotic fluid)): 5.767
AUC0–96h ratio (fetus/MS (maternal serum)): 0.100
C max ratio (fetus/MS (maternal serum)): 0.135
AUC0‑∞ ratio (fetus/mammary gland): 46.45
AUC0–96h ratio (fetus/mammary gland): 43.42
C max ratio (fetus/mammary gland): 11.47
AUC0‑∞ ratio (fetus/ovary): 0.078
AUC0–96h ratio (fetus/ovary): 0.094
C max ratio (fetus/ovary): 0.163
AUC0–96h ratio (fetus/pituitary): 0.026
C max ratio (fetus/pituitary): 0.052
AUC0‑∞ ratio (fetus/placenta): 0.569
AUC0–96h ratio (fetus/placenta): 0.538
C max ratio (fetus/placenta): 0.778
AUC0‑∞ ratio (fetus/thymus): 0.125
AUC0–96h ratio (fetus/thymus): 0.152
C max ratio (fetus/thymus): 0.314
AUC0‑∞ ratio (fetus/thyroid): 8.805
AUC0–96h ratio (fetus/thyroid): 8.445
C max ratio (fetus/thyroid): 8.150
AUC0‑∞ ratio [6]: 12.59
AUC0–96h ratio [6]: 12.52
C max ratio [6]: 2.822
AUC_% extrap (maternal serum): 14.2%
blood-to-plasma ratio (observed experimental): 0.53
AUC0–96h ratio (ovary/MS (maternal serum)): 3.043
C max ratio (ovary/MS (maternal serum)): 1.512
AUC0–96h ratio (pituitary/MS (maternal serum)): 11.289
C max ratio (pituitary/MS (maternal serum)): 4.741
AUC0–96h ratio (pituitary/thymus): 5.933
C max ratio (pituitary/thymus): 4.114
AUC_% extrap (placenta): 4.1%
AUC_%Extrap (placenta): 4.14%
Terminal elimination half-life (t1/2) (placenta): 21.11 h
maternal serum exposure ratio (placenta): 0.5
AUC0‑∞ ratio (placenta/MS (maternal serum)): 0.477
AUC0–96h ratio (placenta/MS (maternal serum)): 0.536
C max ratio (placenta/MS (maternal serum)): 0.316
time at which brown/white adipose concentration ratio reached unity (postexposure): 24 h
amniotic fluid-to-fetus ratio [7]: < 1
fetus-to-amniotic fluid ratio [7]: > 5
AUC0‑∞ ratio (thymus/MS (maternal serum)): 2.169
AUC0–96h ratio (thymus/MS (maternal serum)): 1.903
C max ratio (thymus/MS (maternal serum)): 1.152
AUC0‑∞ ratio (thyroid/MS (maternal serum)): 2.387
AUC0–96h ratio (thyroid/MS (maternal serum)): 2.435
C max ratio (thyroid/MS (maternal serum)): 2.005
AUC0‑∞ ratio (uterus/MS (maternal serum)): 0.917
AUC0–96h ratio (uterus/MS (maternal serum)): 0.888
C max ratio (uterus/MS (maternal serum)): 0.296
AUC0‑∞ ratio (uterus/ovary): 0.262
AUC0–96h ratio (uterus/ovary): 0.292
C max ratio (uterus/ovary): 0.196
